Test results from patent US12630565B2, “DNA-dependent protein kinase inhibitor” (DIZAL (JIANGSU) PHARMACEUTICAL CO., LTD., priority 2019, dated 2026).

Tests used:
[1] = target: Full length human DNAPK protein (Homo sapiens, UniProt P78527); assay: DNA-PK enzymatic assay (TR-FRET); format: biochemical; conditions: 10 μM ATP, 1.6 μM peptide substrate
MDR1, BCRP = assay: MDCKII-MDR1-BCRP efflux assay; format: in vitro ADME; conditions: dog, pH 7.4, 5 μM compound, HBSS pH 7.4, read-out: MDCK-Mdr1-BCRP efflux ratio
Description: The apical-to-basolateral (A-B) and basolateral-to-apical (B-A) transport of compound in HBSS (25 mM HEPES, pH 7.4) was measured across MDCKII-MDR1-BCRP cell monolayers. Incubations were performed at approximately 37° C. for 120 min, with functionality of the test system being confirmed using 5 μM digoxin as a positive control substrate. Transport of 5 μM compound and control compound were determined by quantifying substrate concentration in the incubation medium of donor compartment at the beginning of the incubation period, and both donor and receiver compartments at the end of the incubation period. The data was used to calculate the apparent permeability (Papp). All incubations were performed in triplicate and integrity of the cell monolayers was confirmed using the marker Lucifer yellow.
The permeability coefficient Pexact (cm/s) was calculated using the equation: […]
The Pexact ratio was calculated using the equation: […]
The efflux ratio was calculated using the equation: […]
Where dCr/dt is the cumulative concentration of compound in the receiver chamber as a function of time (μM/s); Vr is the solution volume in the receiver chamber (0.1 mL on the apical side, 0.3 mL on the basolateral side); A is the surface area for the transport, i.e. 0.11 cm2 for the area of the monolayer; CO is the initial concentration in the donor chamber (μM).

[2] = Metabolic stability assay (human microsomal Clint); format: in vitro ADME; conditions: 1 mg/mL microsomes, 1 mM NADPH, 37° C.; for microsomal CLint at 1 μM: human, pooled human liver microsomes, pH 7.4, 1 μM compound; for Human liver microsomal CLint: 1 μM compound
Description: 1 μM compound was incubated with 1 mg/mL of microsomes (Pooled HLM with 20 mg/ml protein cone) at 37° C. in 250 μL of buffer (100 mM phosphate buffer, pH-7.4) containing 1 mM NADPH solution. 20 μL of incubation mix was quenched with 5 volumes chilled acetonitrile at different time points 0, 0.5, 5, 10, 15, 20 and 30 min in a fresh 96 well plate. The quench plate was centrifuged at 4000 rpm for 15 min. 40 μL of supernatant was diluted to 200 μL with pure water and analyzed using LC-MS/MS.
In vitro intrinsic clearance of the drugs in the microsome CLint (μl/min/mg) was calculated in the similar manner as the CLint in the hepatocyte.

Rat hepatocyte = assay: Metabolic stability assay (rat hepatocyte Clint); format: in vitro ADME; conditions: 1 μM compound, cryopreserved hepatocytes 1 million cells per mL
Description: Viability of cryopreserved hepatocytes was determined using trypan blue and the cell conc. was adjusted to […] with buffer. 1 μM compound (in Acetonitrile; 0.01% DMSO) was incubated with 250 μL of hepatocytecells (1 million cells per mL) in a 96 deep well plate. Reaction was stopped at different time points (0, 0.5, 5, 15, 30, 45, 60, 80, 100 and 120 min) by addition of 3 volumes of chilled acetonitrile to 20 μL of reaction mixture and centrifuged at 4° C. for 15 min. 40 μL of supernatant was diluted to 200 μL with pure water and analyzed using LC-MS/MS.
In vitro hepatocyte clearance was estimated based on determination of elimination half-life (T1/2) of compounds disappearance from their initial concentrations. Peak area ratios of each compound (test or control) to IS was calculated. Drug elimination rate constant k (min−1), T1/2 (min), and in vitro intrinsic clearance CLint (μL/min/E6) was calculated according to the following equations: […]
Where Chep (cells×μL^−1) is the cell concentration in the incubation system.

| Compound | IC50 [1] [nM] | efflux ratio at 120 min, 5 μM (MDR1, BCRP) | microsomal CLint at 1 μM [2] [µL/min/mg] | Rat hepatocyte CLint (μl/min/10^−6 cells) (Rat hepatocyte) | Human liver microsomal CLint [2] [µL/min/mg] |
| --- | --- | --- | --- | --- | --- |
| Cc1cc2ncnn2cc1Nc1ncc2c(C)nn([C@H]3CC[C@H](O)CC3)c2n1 [Example 31, (1r,4r)-4-(3-methyl-6-((7-methyl-[1,2,4]triazolo[1,5-a]pyridin-6-yl)amino)-1H-pyrazolo[3,4-d]pyrimidin-1-yl)cyclohexan-1-ol] | 1.8 | 31.2 | 6.6 | 12.4 | – |
| Cc1cc2ncnn2cc1Nc1ncc2c(C)nn(C3CCC3)c2n1 [Example 45, 1-cyclobutyl-3-methyl-N-(7-methyl-[1,2,4]triazolo[1,5-a]pyridin-6-yl)-1H-pyrazolo[3,4-d]pyrimidin-6-amine] | 4.3 | – | 70 | 64.0 | – |
| Cc1cc2nccn2cc1Nc1ncc2c(C)nn(-c3ccc(C#N)cc3)c2n1 [Example 73, 4-(3-methyl-6-((7-methylimidazo[1,2-a]pyridin-6-yl)amino)-1H-pyrazolo[3,4-d]pyrimidin-1-yl)benzonitrile] | 1.3 | – | – | – | – |
| Cc1nn(C2CCOCC2)c2nc(Nc3cn4ncnc4cc3Cl)ncc12 [Example 16, N-(7-chloro-[1,2,4]triazolo[1,5-a]pyridin-6-yl)-3-methyl-1-(tetrahydro-2H-pyran-4-yl)-1H-pyrazolo[3,4-d]pyrimidin-6-amine] | 8.4 | 0.8 | 26.4 | 11.8 | – |
| Cc1cc2ncnn2cc1Nc1ncc2c(n1)c(C1CCOCC1C)nn2C (single isomer, unassigned) [Example 56, 1-methyl-N-(7-methyl-[1,2,4]triazolo[1,5-a]pyridin-6-yl)-3-(3-methyltetrahydro-2H-pyran-4-yl)-1H-pyrazolo[4,3-d]pyrimidin-5-amine] | 1.1 | – | – | – | – |
| Cc1cc2ncnn2cc1Nc1ncc2c(n1)c(C1CCOCC1C)nn2C (single isomer, unassigned) [Example 55, 1-methyl-N-(7-methyl-[1,2,4]triazolo[1,5-a]pyridin-6-yl)-3-(3-methyltetrahydro-2H-pyran-4-yl)-1H-pyrazolo[4,3-d]pyrimidin-5-amine] | 2.5 | – | – | – | – |
| COCCC(C)n1nc(C)c2cnc(Nc3cn4ncnc4cc3C)nc21 (single isomer, unassigned) [Example 67, 1-(4-methoxybutan-2-yl)-3-methyl-N-(7-methyl-[1,2,4]triazolo[1,5-a]pyridin-6-yl)-1H-pyrazolo[3,4-d]pyrimidin-6-amine] | 27 | – | 104 | 8.3 | – |
| Cc1cc2ncnn2cc1Nc1ncc2c(C)nn(CC3CCC3)c2n1 [Example 46, 1-(cyclobutylmethyl)-3-methyl-N-(7-methyl-[1,2,4]triazolo[1,5-a]pyridin-6-yl)-1H-pyrazolo[3,4-d]pyrimidin-6-amine] | 3.3 | – | 105 | 60.9 | – |
| CCC(C)n1nc(C)c2cnc(Nc3cn4ncnc4cc3C)nc21 (single isomer, unassigned) [Example 62, 1-(sec-butyl)-3-methyl-N-(7-methyl-[1,2,4]triazolo[1,5-a]pyridin-6-yl)-1H-pyrazolo[3,4-d]pyrimidin-6-amine] | 5.1 | – | – | 11.7 | 42.4 |
| Cc1cc2ncnn2cc1Nc1ncc2c(C)nn([C@H]3CC[C@@H](F)CC3)c2n1 [Example 27, 1-((1s,4s)-4-fluorocyclohexyl)-3-methyl-N-(7-methyl-[1,2,4]triazolo[1,5-a]pyridin-6-yl)-1H-pyrazolo[3,4-d]pyrimidin-6-amine] | 1 | – | 41.4 | 10.8 | – |
| Cc1cc2ncnn2cc1Nc1ncc2c(C)nn(C3CCCC3)c2n1 [Example 47, 1-cyclopentyl-3-methyl-N-(7-methyl-[1,2,4]triazolo[1,5-a]pyridin-6-yl)-1H-pyrazolo[3,4-d]pyrimidin-6-amine] | 1.7 | – | 89.7 | 43.3 | – |
| COCCC(C)n1nc(C)c2cnc(Nc3cn4ncnc4cc3C)nc21 (single isomer, unassigned) [Example 68, 1-(4-methoxybutan-2-yl)-3-methyl-N-(7-methyl-[1,2,4]triazolo[1,5-a]pyridin-6-yl)-1H-pyrazolo[3,4-d]pyrimidin-6-amine] | 65.3 | – | – | 37.0 | 201.9 |
| Cc1cc2ncnn2cc1Nc1ncc2c(C)nn(C3CC4(CCC4)C3)c2n1 [Example 43, 3-methyl-N-(7-methyl-[1,2,4]triazolo[1,5-a]pyridin-6-yl)-1-(spiro[3.3]heptan-2-yl)-1H-pyrazolo[3,4-d]pyrimidin-6-amine] | 1.5 | – | 173 | 16.9 | – |
| COC1CC2(C1)CC(n1nc(C)c3cnc(Nc4cn5ncnc5cc4C)nc31)C2 (centres unmarked) [Example 54, 1-(6-methoxyspiro[3.3]heptan-2-yl)-3-methyl-N-(7-methyl-[1,2,4]triazolo[1,5-a]pyridin-6-yl)-1H-pyrazolo[3,4-d]pyrimidin-6-amine] | 1.5 | – | – | – | – |
| COC(C)Cn1nc(C)c2cnc(Nc3cn4ncnc4cc3C)nc21 (single isomer, unassigned) [Example 70, 1-(2-methoxypropyl)-3-methyl-N-(7-methyl-[1,2,4]triazolo[1,5-a]pyridin-6-yl)-1H-pyrazolo[3,4-d]pyrimidin-6-amine] | 4.3 | – | – | – | – |
| CCC(C)n1nc(C)c2cnc(Nc3cn4ncnc4cc3C)nc21 (single isomer, unassigned) [Example 61, 1-(sec-butyl)-3-methyl-N-(7-methyl-[1,2,4]triazolo[1,5-a]pyridin-6-yl)-1H-pyrazolo[3,4-d]pyrimidin-6-amine] | 3.5 | – | 34.5 | 5.2 | – |
| Cc1cc2nccn2cc1Nc1ncc2c(C)nn(C3CCC(F)(F)CC3)c2n1 [Example 22, 1-(4,4-difluorocyclohexyl)-3-methyl-N-(7-methylimidazo[1,2-a]pyridin-6-yl)-1H-pyrazolo[3,4-d]pyrimidin-6-amine] | 1.3 | – | 115 | 40.9 | – |
| Cc1cc2ncnn2cc1Nc1ncc2c(C)nn(CCOC(F)(F)F)c2n1 [Example 64, 3-methyl-N-(7-methyl-[1,2,4]triazolo[1,5-a]pyridin-6-yl)-1-(2-(trifluoromethoxy)ethyl)-1H-pyrazolo[3,4-d]pyrimidin-6-amine] | 3.6 | – | 50.8 | 38.6 | – |
| COC(C)Cn1nc(C)c2cnc(Nc3cn4ncnc4cc3C)nc21 (single isomer, unassigned) [Example 71, 1-(2-methoxypropyl)-3-methyl-N-(7-methyl-[1,2,4]triazolo[1,5-a]pyridin-6-yl)-1H-pyrazolo[3,4-d]pyrimidin-6-amine] | 6.4 | – | – | – | – |
| Cc1cc2ncnn2cc1Nc1ncc2c(C)nn([C@H]3CC[C@H](F)CC3)c2n1 [Example 28, 1-((1r,4r)-4-fluorocyclohexyl)-3-methyl-N-(7-methyl-[1,2,4]triazolo[1,5-a]pyridin-6-yl)-1H-pyrazolo[3,4-d]pyrimidin-6-amine] | 1.3 | – | 70 | 14.1 | – |
